Measurements from patent US20250206722A1, “SMALL MOLECULE INHIBITORS OF TEA DOMAIN FAMILY MEMBERS” (The Scripps Research Institute, priority 2022, published 2025).

Columns and labels:
IMR32 cells = test: IMR32 cytotoxicity assay; assay type: cell-based; conditions: Homo sapiens, IMR-32, 72 h, 3 days, Cell TiterGlo
Method: IMR32 cells were obtained from American Type Culture Collection (ATCC, CCL-127) and cultured in DMEM (Corning, 10-013-CV) supplemented with 10% fetal bovine serum (Gibco, 10438-026) and 1% penicillin-streptomycin (Gibco, 15070063). Cells were trypsinized, resuspended in growth medium, and diluted to a concentrated of 20,000 cells/mL. 1,000 cells, 50 μL of cell suspension, per well were then plated in a white 384-well plate (Corning) and incubated at 37° C., 5% CO2. After 24 hours incubation, 100 nL of test compounds in DMSO, 20-point 1:2 dilution starting from 20 μM (final concentration) in triplicate, were transferred to each well using an Agilent Bravo instrument outfitted with a pintool head. Cells were incubated at 37° C., 5% CO2 for 3 days followed by the addition of 30 μL of Cell TiterGlo (Promega; diluted 1:6 in water) to each well and luminescence values recorded using an EnVision plate reader. […]

NCI-H226 cells [1] = test: NCI-H226 proliferation assay (Wuxi AppTec); assay type: cell-based; conditions: Homo sapiens, 168 h, 7 days, CellTiter-Glo, top dose 10, 3-fold dilution, 9 doses
How it was run: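 NCI-H226 cells were seeded at 500 cells/well overnight, then treated with compounds in a 9-point, 3-fold dilution from a top dose of 10 μM, with 0.2% DMSO. Plates were incubated 7 days at 37° C, 5% CO2. Viability was read by CellTiter-Glo luminescence, normalized to DMSO (max) and medium-only (min) controls.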

[2] = system: transcriptional activity of TEADs; test: TEAD reporter assay (MCF7 TEAD-LUC reporter cells); assay type: cell-based; conditions: Homo sapiens, 24 hours, BrightGlo luminescence
How it was run: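 Luminescence (BrightGlo) was read after 24 h of compound treatment at 37 °C, 5 % CO2. Cells had been seeded at 5,000 per well in DMEM with 10 % FBS and insulin and rested 24 h first. Dosing used 20 points, 1:2 dilution from 20 μM final, triplicates.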

NCI-H226 cells [3] = test: NCI-H226 proliferation assay (in house); assay type: cell-based; conditions: Homo sapiens, 120 h, 5 days, Cell TiterGlo, 20-point 1:2 dilution from 20 μM
How it was run: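 Viability by CellTiter-Glo luminescence after 5-day compound exposure at 37 °C, 5% CO2. Compounds added 24 h post-seeding (500 cells/well, RPMI 1640 with 10% FBS) as 20-point, 2-fold series from 20 μM final, triplicate wells.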

[4] = Pharmacokinetic studies in mice; assay type: in vivo, mouse; conditions: for Vd / clearance / half-life: mouse plasma; for Vd / clearance: intravenous 2 mg/kg in 75% PEG 300+25% D5W; for half-life: intravenous 2 mg/kg, oral 10 mg/kg in 75% PEG 300+25% D5W; for bioavailability: plasma, mouse, oral 10 mg/kg vs intravenous 2 mg/kg in 75% PEG 300+25% D5W
Method: Pharmacokinetic Studies in mice: The plasma pharmacokinetic profiles of representative compounds were evaluated in mouse via intravenous (2 mg/kg in 75% PEG 300+25% D5W solution) and oral (10 mg/kg in 75% PEG 300+25% D5W solution) dosing routes.

In the case of `C=CC(=O)N1CCN(c2nccnc2Nc2ccc(C(F)(F)F)cc2)CC1` [Compound 1, 1-(4-(3-((4-(trifluoromethyl)phenyl)amino)pyrazin-2-yl)piperazin-1-yl)prop-2-en-1-one], the IC50 (IMR32 cells) is reported as over 10 µM, the IC50 (NCI-H226 cells [1]) is reported as 0.0143 µM and the IC50 [2] is reported as 0.0018 µM. The IC50 (NCI-H226 cells [3]) was 0.0166 µM, the Vd [4] was 7 L/kg and the clearance [4] was 42.2 mL/min/kg. For the same compound, the half-life [4] was 126 min and the bioavailability [4] was 94.4%.

In the case of `C=CC(=O)N1CCC(c2nccnc2Nc2ccc(C(F)(F)F)cc2)CC1` [Example 26, 1-[4-(3-{[4-(trifluoromethyl)phenyl]amino}pyrazin-2-yl)piperidin-1-yl]prop-2-en-1-one], the IC50 (IMR32 cells) is reported as 10 µM, the IC50 (NCI-H226 cells [1]) is reported as 0.02 µM and the IC50 [2] is reported as 0.002 µM. The IC50 (NCI-H226 cells [3]) was 0.009 µM.

Work on `C=CC(=O)N1CCN(c2nccnc2Nc2ccc(S(F)(F)(F)(F)F)cc2)CC1` [Example 31, 1-(4-(3-((4-(pentafluoro-16-sulfaneyl)phenyl)amino)pyrazin-2-yl)piperazin-1-yl)prop-2-en-1-one] yielded an IC50 (IMR32 cells) of over 5 µM, an IC50 (NCI-H226 cells [1]) of 0.018 µM and an IC50 [2] of 0.00206 µM. The IC50 (NCI-H226 cells [3]) was 0.0155 µM.

In the case of `C=CC(=O)N1CCN(c2nccnc2Nc2ccc(OC(F)(F)F)cc2)CC1` [Example 34, 1-(4-(3-((4-(trifluoromethoxy)phenyl)amino)pyrazin-2-yl)piperazin-1-yl)prop-2-en-1-one], the IC50 (IMR32 cells) is reported as over 10 µM, the IC50 (NCI-H226 cells [1]) is reported as 0.006 µM and the IC50 [2] is reported as 0.002 µM. It also gave an IC50 (NCI-H226 cells [3]) of 0.007 µM.

For `C=CC(=O)N1CCN(c2nccnc2Nc2ccc(C(F)(F)F)cn2)CC1` [Example 39, 1-(4-(3-((5-(trifluoromethyl)pyridin-2-yl)amino)pyrazin-2-yl)piperazin-1-yl)prop-2-en-1-one], the IC50 (IMR32 cells) was over 20 µM, the IC50 (NCI-H226 cells [1]) was 0.015 µM and the IC50 [2] was 0.005 µM. The IC50 (NCI-H226 cells [3]) was 0.016 µM, the Vd [4] was 1.8 L/kg and the clearance [4] was 39.5 mL/min/kg. For the same compound, the half-life [4] was 30 min and the bioavailability [4] was 90%.

In the case of `C=CC(=O)N1CCN(c2nccnc2Oc2ccc(C(F)(F)F)cn2)CC1` [Example 73, 1-(4-(3-((5-(trifluoromethyl)pyridin-2-yl)oxy)pyrazin-2-yl)piperazin-1-yl)prop-2-en-1-one], the IC50 (IMR32 cells) is reported as over 20 µM, the IC50 (NCI-H226 cells [1]) is reported as 0.032 µM and the IC50 [2] is reported as 0.003 µM. For the same compound, the IC50 (NCI-H226 cells [3]) was 0.025 µM.

`C=CC(=O)N1CCC(c2nccnc2Oc2ccc(C(F)(F)F)nc2)CC1` [Example 79, 1-(4-(3-((6-(trifluoromethyl)pyridin-3-yl)oxy)pyrazin-2-yl)piperidin-1-yl)prop-2-en-1-one] gave an IC50 (NCI-H226 cells [1]) of 0.028 µM, an IC50 [2] of 0.002 µM and an IC50 (NCI-H226 cells [3]) of 0.017 µM. The Vd [4] was 1.73 L/kg, the clearance [4] was 47.3 mL/min/kg and the half-life [4] was 24 min. The bioavailability [4] was 109%.

`C=CC(=O)N1CCN(c2nc(C)cnc2Nc2ccc(C(F)(F)F)cc2)CC1` [Example 112, 1-(4-(6-methyl-3-((4-(trifluoromethyl)phenyl)amino)pyrazin-2-yl)piperazin-1-yl)prop-2-en-1-one] showed an IC50 (IMR32 cells) of 10 µM, an IC50 (NCI-H226 cells [1]) of 0.009 µM and an IC50 [2] of 0.0018 µM. It also gave an IC50 (NCI-H226 cells [3]) of 0.011 µM.

Compound `O=C(CCl)N1CCN(c2nccnc2Nc2ccc(C(F)(F)F)cc2)CC1` [Example 170, 2-chloro-1-(4-(3-((4-(trifluoromethyl)phenyl)amino)pyrazin-2-yl)piperazin-1-yl)ethan-1-one] has an IC50 (IMR32 cells) of 0.76 µM, an IC50 [2] of 0.267 µM and an IC50 (NCI-H226 cells [3]) of 0.173 µM.

For `N#CCC(=O)N1CCN(c2nccnc2Nc2ccc(C(F)(F)F)cc2)CC1` [Example 171, 3-oxo-3-(4-(3-((4-(trifluoromethyl)phenyl)amino)pyrazin-2-yl)piperazin-1-yl)propanenitrile], the IC50 (IMR32 cells) was over 20 µM, the IC50 [2] was 2.22 µM and the IC50 (NCI-H226 cells [3]) was 5.25 µM.

Work on `O=C(C1CO1)N1CCN(c2nccnc2Nc2ccc(C(F)(F)F)cc2)CC1` (stereo not shown) [Example 172, oxiran-2-yl(4-(3-((4-(trifluoromethyl)phenyl)amino)pyrazin-2-yl)piperazin-1-yl)methanone] yielded an IC50 (IMR32 cells) of 10 µM, an IC50 [2] of 0.0032 µM and an IC50 (NCI-H226 cells [3]) of 1.4 µM.

`C#CC(=O)N1CCN(c2nccnc2Nc2ccc(C(F)(F)F)cc2)CC1` [Example 173, 1-(4-(3-((4-(trifluoromethyl)phenyl)amino)pyrazin-2-yl)piperazin-1-yl)prop-2-yn-1-one] gave an IC50 (IMR32 cells) of 0.202 µM, an IC50 [2] of 0.0365 µM and an IC50 (NCI-H226 cells [3]) of 0.507 µM.

`CC#CC(=O)N1CCN(c2nccnc2Nc2ccc(C(F)(F)F)cc2)CC1` [Example 174, 1-(4-(3-((4-(trifluoromethyl)phenyl)amino)pyrazin-2-yl)piperazin-1-yl)but-2-yn-1-one] showed an IC50 (IMR32 cells) of over 10 µM, an IC50 [2] of over 20 µM and an IC50 (NCI-H226 cells [3]) of over 20 µM.

For `N#CCN1CCN(c2nccnc2Nc2ccc(C(F)(F)F)cc2)CC1` [Example 175, 2-(4-(3-((4-(trifluoromethyl)phenyl)amino)pyrazin-2-yl)piperazin-1-yl)acetonitrile], the IC50 (IMR32 cells) was over 20 µM, the IC50 [2] was 0.833 µM and the IC50 (NCI-H226 cells [3]) was over 10 µM.

`CC(C)(C#N)N1CCN(c2nccnc2Nc2ccc(C(F)(F)F)cc2)CC1` [Example 176, 2-methyl-2-(4-(3-((4-(trifluoromethyl)phenyl)amino)pyrazin-2-yl)piperazin-1-yl)propanenitrile] showed an IC50 (IMR32 cells) of over 10 µM, an IC50 [2] of 2.5 µM and an IC50 (NCI-H226 cells [3]) of 9.95 µM.

For `C#CCN(C)C/C=C/C(=O)N1CCN(c2nccnc2Nc2ccc(C(F)(F)F)cc2)CC1` [Example 179, (E)-4-(methyl(prop-2-yn-1-yl)amino)-1-(4-(3-((4-(trifluoromethyl)phenyl)amino)pyrazin-2-yl)piperazin-1-yl)but-2-en-1-one], the IC50 (IMR32 cells) was over 20 µM, the IC50 [2] was over 10 µM and the IC50 (NCI-H226 cells [3]) was 2.48 µM.

For `C=C(CN1CCCC1)C(=O)N1CCN(c2nccnc2Nc2ccc(C(F)(F)F)cc2)CC1` [Example 189, 2-(pyrrolidin-1-ylmethyl)-1-(4-(3-((4-(trifluoromethyl)phenyl)amino)pyrazin-2-yl)piperazin-1-yl)prop-2-en-1-one], the IC50 (IMR32 cells) was 9.3 µM, the IC50 [2] was 2.12 µM and the IC50 (NCI-H226 cells [3]) was 5.36 µM.

Compound `C=CC(=O)N(C)CCOc1nccnc1Nc1ccc(C(F)(F)F)cc1` [Example 191, N-methyl-N-(2-((3-((4-(trifluoromethyl)phenyl)amino)pyrazin-2-yl)oxy)ethyl)acrylamide] has an IC50 (IMR32 cells) of 10 µM, an IC50 [2] of 0.0043 µM and an IC50 (NCI-H226 cells [3]) of 0.047 µM.

`C=CC(=O)NCCOc1nccnc1Nc1ccc(C(F)(F)F)cc1` [Example 192, N-(2-((3-((4-(trifluoromethyl)phenyl)amino)pyrazin-2-yl)oxy)ethyl)acrylamide] gave an IC50 (IMR32 cells) of over 20 µM, an IC50 [2] of 0.0179 µM and an IC50 (NCI-H226 cells [3]) of 1.78 µM.
